Data published in patent US8658661B2, “Oxadiazole inhibitors of leukotriene production” (Boehringer Ingelheim International GmbH, priority 2010, dated 2014).
Like-named read-outs stand apart in the source and are kept apart here.

Tests used:
[1] = target: T1, recombinant human FLAP protein (Homo sapiens, UniProt P20292); assay: FLAP binding assay (SPA, displacement of [125I]L-691,831)
T1 construct: made in house; host or cells: Sf9 insect cells (100,000×g membrane pellet used)
T1 sequence (P20292 1-161): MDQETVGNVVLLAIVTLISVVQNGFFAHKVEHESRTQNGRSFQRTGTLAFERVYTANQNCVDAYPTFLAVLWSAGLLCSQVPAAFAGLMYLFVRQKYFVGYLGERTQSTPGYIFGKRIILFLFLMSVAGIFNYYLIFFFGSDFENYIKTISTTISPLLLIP
Protocol: Assessment of Biological Properties 1. Binding Assay
Compounds are assessed for the ability to bind to FLAP in a binding assay that measures compound-specific displacement of an iodinated (^125I) FLAP inhibitor via a Scintillation Proximity Assay format (adapted from S. Charleson et al., Mol. Pharmacol., 1992, 41, 873-879).
Cell pellets produced from sf9 insect cells expressing recombinant human FLAP protein are resuspended in buffer A [15 mM Tris-HCl (pH 7.5), 2 mM MgCl2, 0.3 mM EDTA, 1 mM PMSF]. The cells are lysed with a Dounce homogenizer and the material is centrifuged at 10,000×g for 10 minutes. The supernatant is then collected and centrifuged at 100,000×g for 60 minutes. To prepare membrane protein for an assay, an aliquot of the 100,000×g pellet is resuspended in 1 ml of buffer A, Dounce homogenized, and finally subjected to polytron mixing (30 seconds). Membrane protein (25 μl, 5 μg) is mixed with WGA SPA beads (Amersham) and stirred for 1 h. […] (final concentrations: beads, 200 μg/well; protein, 5 μg/well; [^125I] probe, 0 08 nM/well (17 nCi/well). The plates are shaken for 2 h before reading on a Microbeta plate reader. Non-specific binding is determined by the addition of 10 μM cold L-691,831 compound.

[2] = test system: synthesis of LTB4 in human whole blood; assay: Human whole blood assay (inhibition of LTB4 synthesis, calcimycin stimulated); format: cell-based; conditions: heparinized human whole blood, calcimycin 20 μM, plasma LTB4
Protocol: Compounds are additionally tested in a human whole blood assay to determine their ability to inhibit the synthesis of LTB4 in a cellular system. Compounds are combined with heparinized human whole blood and incubated for 15 minutes at 37° C. Calcimycin (20 μM final, prepared in phosphate-buffered saline, pH 7.4) is then added and the mixture is incubated for another 30 minutes at 37° C. The samples are centrifuged for 5 min at low speed (1500×g) and the plasma layer is removed. Plasma LTB4 concentrations are then measured using an antibody-based homogenous time-resolved fluorescence method (CisBio, Bedford, Mass.).

[3] = membranes of sf9 cells expressing recombinant human FLAP, [125I]L-691,831 probe, read-out: FLAP binding IC50

Row | SMILES | IC50 [2] [nM] | IC50 [1, 3] [nM] | IC50 [1] [nM]
1 | CC(C)[C@](C)(c1ccc(-c2cnc(N)nc2)cc1)c1noc(-c2cnn(C)c2)n1 (single isomer, unassigned) [Example 46] | 33 | – | 1.6
2 | CC(C)[C@@](C)(c1ccc(-c2cnc(N)nc2)cc1)c1noc(-c2cnn(C)c2)n1 (single isomer, unassigned) [Example 47] | 360 | – | 7.7
3 | CC(C)(CO)Nc1cnc(-c2nc([C@@](C)(c3ccc(-c4cnc(N)nc4)cc3)C3CC3)no2)cn1 (single isomer, unassigned) [Example 56] | 79 | 2.4 | –
4 | COc1cncc(-c2ccc(C(C)(c3noc(-c4cnccn4)n3)C(C)C)cc2)c1 (centres unmarked) [Example 1, 2-(3-{2-[4-(5-methoxypyridin-3-yl)phenyl]-3-methylbutan-2-yl}-1,2,4-oxadiazol-5-yl)pyrazine] | – | 57 | –
5 | CC(C)C(C)(c1ccc(-c2cnc(N)nc2)cc1)c1noc(-c2ccccc2)n1 (centres unmarked) [Example 2, 5-{4-[3-methyl-2-(5-phenyl-1,2,4-oxadiazol-3-yl)butan-2-yl]phenyl}pyrimidin-2-amine] | 680 | 5.1 | –
6 | CC(C)C(C)(c1ccc(-c2cnc(N)nc2)cc1)c1noc(-c2cccnc2)n1 (centres unmarked) [Example 3, 5-(4-{3-methyl-2-[5-(pyridin-3-yl)-1,2,4-oxadiazol-3-yl]butan-2-yl}phenyl)pyrimidin-2-amine] | 94 | 1.7 | –
7 | Cc1ccc(-c2nc(C(C)(c3ccc(-c4cnc(N)nc4)cc3)C(C)C)no2)cn1 (centres unmarked) [Example 4, 5-(4-{3-methyl-2-[5-(6-methylpyridin-3-yl)-1,2,4-oxadiazol-3-yl]butan-2-yl}phenyl)pyrimidin-2-amine] | 310 | 1.6 | –
8 | Cc1ncccc1-c1nc(C(C)(c2ccc(-c3cnc(N)nc3)cc2)C(C)C)no1 (centres unmarked) [Example 5, 5-(4-{3-methyl-2-[5-(2-methylpyridin-3-yl)-1,2,4-oxadiazol-3-yl]butan-2-yl}phenyl)pyrimidin-2-amine] | 150 | 1.6 | –
9 | CC(C)C(C)(c1ccc(-c2cnc(N)c(CO)c2)cc1)c1noc(-c2cccnc2)n1 (centres unmarked) [Example 6, [2-amino-5-(4-{3-methyl-2-[5-(pyridin-3-yl)-1,2,4-oxadiazol-3-yl]butan-2-yl}phenyl)pyridin-3-yl]methanol] | 70 | 1.1 | –
10 | CC(C)C(C)(c1ccc(-c2cnc(N)nc2)cc1)c1noc(-c2ccc(Cl)nc2)n1 (centres unmarked) [Example 7, 5-(4-{2-[5-(6-chloropyridin-3-yl)-1,2,4-oxadiazol-3-yl]-3-methylbutan-2-yl}phenyl)pyrimidin-2-amine] | 560 | 3.1 | –
11 | COc1ccc(-c2nc(C(C)(c3ccc(-c4cnc(N)nc4)cc3)C(C)C)no2)cn1 (centres unmarked) [Example 8, 5-(4-{2-[5-(6-methoxypyridin-3-yl)-1,2,4-oxadiazol-3-yl]-3-methylbutan-2-yl}phenyl)pyrimidin-2-amine] | 530 | 3.8 | –
12 | CC(C)C(C)(c1ccc(-c2cnc(N)nc2)cc1)c1noc(-c2ccc(=O)[nH]c2)n1 (centres unmarked) [Example 9, 5-(3-{2-[4-(2-aminopyrimidin-5-yl)phenyl]-3-methylbutan-2-yl}-1,2,4-oxadiazol-5-yl)pyridin-2(1H)-one] | 210 | 2.9 | –
13 | COc1ncccc1-c1nc(C(C)(c2ccc(-c3cnc(N)nc3)cc2)C(C)C)no1 (centres unmarked) [Example 10, 5-(4-{2-[5-(2-methoxypyridin-3-yl)-1,2,4-oxadiazol-3-yl]-3-methylbutan-2-yl}phenyl)pyrimidin-2-amine] | – | 4.3 | –

The next lines start with results.

Row | IC50 [2] [nM] | IC50 [1, 3] [nM] | SMILES | IC50 [1] [nM]
14 | 150 | 6.8 | CC(C)(CO)Nc1cnc(-c2nc([C@](C)(c3ccc(-c4cnc(N)nc4)cc3)C3CC3)no2)cn1 (single isomer, unassigned) [Example 57] | –
15 | 58 | 1.9 | CN(C)C(=O)Cn1cc(-c2nc([C@@](C)(c3ccc(-c4cnc(N)nc4)cc3)C3CC3)no2)cn1 (single isomer, unassigned) [Example 115] | –
16 | 2000 | 150 | CN(C)C(=O)Cn1cc(-c2nc([C@](C)(c3ccc(-c4cnc(N)nc4)cc3)C3CC3)no2)cn1 (single isomer, unassigned) [Example 116] | –
17 | 760 | – | CC(C)[C@@](C)(c1ccc(-c2cnc(N)nc2)cc1)c1noc(N2CCC(O)CC2)n1 (single isomer, unassigned) [Example 224] | –
18 | – | 8.7 | Cc1csc(-c2nc(C(C)(c3ccc(-c4cnc(N)nc4)cc3)C(C)C)no2)n1 (centres unmarked) [Example 131, 5-(4-{3-methyl-2-[5-(4-methyl-1,3-thiazol-2-yl)-1,2,4-oxadiazol-3-yl]butan-2-yl}phenyl)pyrimidin-2-amine] | –
19 | – | 4.4 | CC(C)C(C)(c1ccc(-c2cnc(N)nc2)cc1)c1noc(-c2nccs2)n1 (centres unmarked) [Example 139, 5-(4-{3-methyl-2-[5-(1,3-thiazol-2-yl)-1,2,4-oxadiazol-3-yl]butan-2-yl}phenyl)pyrimidin-2-amine] | –
20 | – | 58 | CC(C)C(C)(c1ccc(-c2cnc(N)nc2)cc1)c1noc(-c2ccccc2S(C)(=O)=O)n1 (centres unmarked) [Example 149, 5-[4-(3-methyl-2-{5-[2-(methylsulfonyl)phenyl]-1,2,4-oxadiazol-3-yl}butan-2-yl)phenyl]pyrimidin-2-amine] | –
21 | – | 3.3 | CC(C)C(C)(c1ccc(-c2cnc(N)nc2)cc1)c1noc(-c2cnc(=O)[nH]c2)n1 (centres unmarked) [Example 154, 5-(3-{2-[4-(2-aminopyrimidin-5-yl)phenyl]-3-methylbutan-2-yl}-1,2,4-oxadiazol-5-yl)pyrimidin-2(1H)-one] | –
22 | – | 15 | CC(C)C(C)(c1ccc(-c2cnc(N)nc2)cc1)c1noc(C2CC2)n1 (centres unmarked) [Example 156, 5-{4-[2-(5-cyclopropyl-1,2,4-oxadiazol-3-yl)-3-methylbutan-2-yl]phenyl}pyrimidin-2-amine] | –
23 | 68 | – | CC(c1ccc(-c2cnc(N)nc2)cc1)(c1noc(N2CCC(O)CC2)n1)C1CC1 (centres unmarked) [Example 205, 1-(3-{1-[4-(2-Amino-pyrimidin-5-yl)-phenyl]-1-cyclopropyl-ethyl}-[1,2,4]oxadiazol-5-yl)-piperidin-4-ol] | –
24 | 34 | – | CC(C)C(C)(c1ccc(-c2cnc(N)nc2)cc1)c1noc(N2CCC(C)(O)CC2)n1 (centres unmarked) [Example 216, 1-(3-{1-[4-(2-Amino-pyrimidin-5-yl)-phenyl]-1,2-dimethyl-propyl}-[1,2,4]oxadiazol-5-yl)-4-methyl-piperidin-4-ol] | –
25 | 550 | – | CC(C)[C@@](C)(c1ccc(-c2cnc(N)nc2)cc1)c1noc(N2CCC(C)(O)CC2)n1 [Example 228, 1-(3-{(S)-1-[4-(2-Amino-pyrimidin-5-yl)-phenyl]-1,2-dimethyl-propyl}-[1,2,4]oxadiazol-5-yl)-4-methyl-piperidin-4-ol] | –
26 | 1000 | – | C[C@](c1ccc(-c2cnc(N)nc2)cc1)(c1noc(N2CCC(O)CC2)n1)C1CC1 [Example 234, 1-(3-{(S)-1-[4-(2-Amino-pyrimidin-5-yl)-phenyl]-1-cyclopropyl-ethyl}-[1,2,4]oxadiazol-5-yl)-piperidin-4-ol] | –
27 | 84 | – | CC(C)C(C)(c1ccc(-c2cnc(N)nc2)cc1)c1noc(N2CCC(O)CC2)n1 (centres unmarked) [Example 262, 1-(3-{1-[4-(2-Amino-pyrimidin-5-yl)-phenyl]-1,2-dimethyl-propyl}-[1,2,4]oxadiazol-5-yl)-piperidin-4-ol] | –
